Target: ROCK2 (Homo sapiens, UniProt O75116)
Experiment: ROCK2 kinase inhibition assay (Caliper LABCHIP, FITC peptide substrate)
Type: biochemical
Conditions: 5 μM ATP, 1.5 μM peptide substrate; value ranges
Procedure, shortened: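 Rho kinase with 5 μM ATP and 1.5 μM FITC-AHA-AKRRRLSSLRA-OH peptide in HEPES pH 7.5, 20 mM MgCl2, 0.015% Brij-35, 4 mM DTT, DMSO <2%. EDTA stop; phospho and non-phospho peptide separated on LabChip. IC50 from dose-response fit.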

ROCK2, sequence (O75116 whole entry, species assumed): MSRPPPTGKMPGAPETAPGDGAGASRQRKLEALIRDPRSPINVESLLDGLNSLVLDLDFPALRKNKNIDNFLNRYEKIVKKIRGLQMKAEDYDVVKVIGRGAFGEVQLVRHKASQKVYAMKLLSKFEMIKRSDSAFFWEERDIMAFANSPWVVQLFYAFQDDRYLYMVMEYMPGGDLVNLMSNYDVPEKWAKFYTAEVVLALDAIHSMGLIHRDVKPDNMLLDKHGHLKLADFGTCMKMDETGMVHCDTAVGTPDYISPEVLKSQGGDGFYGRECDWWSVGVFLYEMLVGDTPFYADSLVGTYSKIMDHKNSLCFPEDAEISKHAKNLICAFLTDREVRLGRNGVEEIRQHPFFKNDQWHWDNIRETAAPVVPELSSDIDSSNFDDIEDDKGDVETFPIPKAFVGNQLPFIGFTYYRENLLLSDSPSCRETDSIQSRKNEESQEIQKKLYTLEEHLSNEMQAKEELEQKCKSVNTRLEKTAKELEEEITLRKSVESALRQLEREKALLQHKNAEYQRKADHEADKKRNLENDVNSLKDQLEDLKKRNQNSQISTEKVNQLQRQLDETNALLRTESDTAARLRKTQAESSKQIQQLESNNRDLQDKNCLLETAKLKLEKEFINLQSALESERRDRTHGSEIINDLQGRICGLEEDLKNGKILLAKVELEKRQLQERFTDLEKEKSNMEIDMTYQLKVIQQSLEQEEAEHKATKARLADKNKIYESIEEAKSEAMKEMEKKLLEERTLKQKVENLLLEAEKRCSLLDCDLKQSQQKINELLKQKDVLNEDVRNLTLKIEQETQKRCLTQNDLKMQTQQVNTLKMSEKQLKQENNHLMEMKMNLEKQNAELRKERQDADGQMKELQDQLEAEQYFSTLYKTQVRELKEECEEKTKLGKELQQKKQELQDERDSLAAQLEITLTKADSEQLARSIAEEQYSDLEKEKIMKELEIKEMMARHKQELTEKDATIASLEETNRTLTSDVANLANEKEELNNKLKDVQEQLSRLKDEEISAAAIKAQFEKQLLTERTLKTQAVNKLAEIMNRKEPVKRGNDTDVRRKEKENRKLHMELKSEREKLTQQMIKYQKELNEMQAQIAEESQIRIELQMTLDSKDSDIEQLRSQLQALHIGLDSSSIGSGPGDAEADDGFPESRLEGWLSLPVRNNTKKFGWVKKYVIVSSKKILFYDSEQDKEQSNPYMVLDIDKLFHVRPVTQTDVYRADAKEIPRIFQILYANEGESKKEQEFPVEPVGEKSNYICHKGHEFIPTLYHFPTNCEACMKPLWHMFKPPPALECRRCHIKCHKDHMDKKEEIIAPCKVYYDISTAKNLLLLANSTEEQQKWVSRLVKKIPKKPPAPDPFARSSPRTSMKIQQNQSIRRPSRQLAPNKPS

| Compound | IC50 [nM] |
| --- | --- |
| COc1cccc(C(C)n2ccn(-c3ccc(-c4cn[nH]c4)cn3)c2=O)c1 (single isomer, unassigned) [Example 354, 1-(5-(1H-pyrazol-4-yl)pyridin-2-yl)-3-(1-(3-methoxyphenyl)ethyl)-1H-imidazol-2(3H)-one] | 20.1 to 200 |
| CC(c1cccc(OCC2CC2)c1)n1ccn(-c2ccc(-c3cn[nH]c3)cc2)c1=O (single isomer, unassigned) [Example 356, 1-(4-(1H-pyrazol-4-yl)phenyl)-3-(1-(3-(cyclopropylmethoxy)phenyl)ethyl)-1H-imidazol-2(3H)-one] | 200 to 2000 |
| CC(c1cccc(OCC2CC2)c1)n1ccn(-c2ccc(-c3cn[nH]c3)cc2)c1=O (single isomer, unassigned) [Example 357, 1-(4-(1H-pyrazol-4-yl)phenyl)-3-(1-(3-(cyclopropylmethoxy)phenyl)ethyl)-1H-imidazol-2(3H)-one] | 20.1 to 200 |
| CCc1cc(-n2ccn(C(CO)c3cccc(OC)c3)c2=O)ccc1-c1cn[nH]c1 (single isomer, unassigned) [Example 358, 1-(3-ethyl-4-(1H-pyrazol-4-yl)phenyl)-3-(2-hydroxy-1-(3-methoxyphenyl)ethyl)-1H-imidazol-2(3H)-one] | 200 to 2000 |
| CCc1cc(-n2ccn(C(CO)c3cccc(OC)c3)c2=O)ccc1-c1cn[nH]c1 (single isomer, unassigned) [Example 359, 1-(3-ethyl-4-(1H-pyrazol-4-yl)phenyl)-3-(2-hydroxy-1-(3-methoxyphenyl)ethyl)-1H-imidazol-2(3H)-one] | 20.1 to 200 |
| COc1cccc(C(CO)n2ccn(-c3ccc(-c4cn[nH]c4)c(OC)c3)c2=O)c1 (single isomer, unassigned) [Example 360, 1-(2-hydroxy-1-(3-methoxyphenyl)ethyl)-3-(3-methoxy-4-(1H-pyrazol-4-yl)phenyl)-1H-imidazol-2(3H)-one] | 200 to 2000 |
| CCc1nc(-n2ccn(C(C)c3cc(F)cc(OC)c3)c2=O)ccc1-c1cn[nH]c1 (single isomer, unassigned) [Example 363, 1-(6-ethyl-5-(1H-pyrazol-4-yl)pyridin-2-yl)-3-(1-(3-fluoro-5-methoxyphenyl)ethyl)-1H-imidazol-2(3H)-one] | 200 to 2000 |
| CCOc1cccc(C(C)n2ccn(-c3ccc(-c4cn[nH]c4)c(CC)n3)c2=O)c1 (single isomer, unassigned) [Example 364, 1-(1-(3-ethoxyphenyl)ethyl)-3-(6-ethyl-5-(1H-pyrazol-4-yl)pyridin-2-yl)-1H-imidazol-2(3H)-one] | 20.1 to 200 |
| CCOc1cccc(C(C)n2ccn(-c3ccc(-c4cn[nH]c4)c(CC)n3)c2=O)c1 (single isomer, unassigned) [Example 365, 1-(1-(3-ethoxyphenyl)ethyl)-3-(6-ethyl-5-(1H-pyrazol-4-yl)pyridin-2-yl)-1H-imidazol-2(3H)-one] | 200 to 2000 |
| COc1cc(F)cc(C(C)n2ccn(-c3ccc(-c4cn[nH]c4)cc3)c2=O)c1 (single isomer, unassigned) [Example 367, 1-(4-(1H-pyrazol-4-yl)phenyl)-3-(1-(3-fluoro-5-methoxyphenyl)ethyl)-1H-imidazol-2(3H)-one] | 20.1 to 200 |
| CCOc1cccc(C(C)n2ccn(-c3ccc(-c4cn[nH]c4)cc3)c2=O)c1 (single isomer, unassigned) [Example 368, 1-(4-(1H-pyrazol-4-yl)phenyl)-3-(1-(3-ethoxyphenyl)ethyl)-1H-imidazol-2(3H)-one] | 200 to 2000 |
| CCOc1cccc(C(C)n2ccn(-c3ccc(-c4cn[nH]c4)cn3)c2=O)c1 (single isomer, unassigned) [Example 371, 1-(5-(1H-pyrazol-4-yl)pyridin-2-yl)-3-(1-(3-ethoxyphenyl)ethyl)-1H-imidazol-2(3H)-one] | 20.1 to 200 |
| CCc1nc(-n2ccn(C(C)c3cccc(OCC4CC4)c3)c2=O)ccc1-c1cn[nH]c1 (single isomer, unassigned) [Example 372, 1-(1-(3-(cyclopropylmethoxy)phenyl)ethyl)-3-(6-ethyl-5-(1H-pyrazol-4-yl)pyridin-2-yl)-1H-imidazol-2(3H)-one] | 20.1 to 200 |
| COc1cccc(C(C)n2ccn(-c3ccc(-c4ccncc4F)cc3)c2=O)c1 (single isomer, unassigned) [Example 387, 1-(4-(3-fluoropyridin-4-yl)phenyl)-3-(1-(3-methoxyphenyl)ethyl)-1H-imidazol-2(3H)-one] | 20.1 to 200 |
| CCc1nc(-n2ccn(C(C)c3ccc(F)c(OC)c3)c2=O)ccc1-c1cn[nH]c1 (single isomer, unassigned) [Example 388, 1-(6-ethyl-5-(1H-pyrazol-4-yl)pyridin-2-yl)-3-(1-(4-fluoro-3-methoxyphenyl)ethyl)-1H-imidazol-2(3H)-one] | 2.1 to 20 |

Results, then the compound that gave them:

| IC50 [nM] | Compound |
| --- | --- |
| 2.1 to 20 | CCc1cc(-n2ccn(C(C)c3cccc(OC)c3)c2=O)ccc1-c1cn[nH]c1 (single isomer, unassigned) [Example 353, 1-(3-ethyl-4-(1H-pyrazol-4-yl)phenyl)-3-(1-(3-methoxyphenyl)ethyl)-1H-imidazol-2(3H)-one] |
| < 2 | COc1cccc(C(C)n2ccn(-c3ccc(-c4cn[nH]c4)cn3)c2=O)c1 (single isomer, unassigned) [Example 355, 1-(5-(1H-pyrazol-4-yl)pyridin-2-yl)-3-(1-(3-methoxyphenyl)ethyl)-1H-imidazol-2(3H)-one] |
| 2.1 to 20 | COc1cccc(C(CO)n2ccn(-c3ccc(-c4cn[nH]c4)c(OC)c3)c2=O)c1 (single isomer, unassigned) [Example 361, 1-(2-hydroxy-1-(3-methoxyphenyl)ethyl)-3-(3-methoxy-4-(1H-pyrazol-4-yl)phenyl)-1H-imidazol-2(3H)-one] |
| < 2 | CCc1nc(-n2ccn(C(C)c3cc(F)cc(OC)c3)c2=O)ccc1-c1cn[nH]c1 (single isomer, unassigned) [Example 362, 1-(6-ethyl-5-(1H-pyrazol-4-yl)pyridin-2-yl)-3-(1-(3-fluoro-5-methoxyphenyl)ethyl)-1H-imidazol-2(3H)-one] |
| < 2 | COc1cc(F)cc(C(C)n2ccn(-c3ccc(-c4cn[nH]c4)cc3)c2=O)c1 (single isomer, unassigned) [Example 366, 1-(4-(1H-pyrazol-4-yl)phenyl)-3-(1-(3-fluoro-5-methoxyphenyl)ethyl)-1H-imidazol-2(3H)-one] |
| 2.1 to 20 | CCOc1cccc(C(C)n2ccn(-c3ccc(-c4cn[nH]c4)cc3)c2=O)c1 (single isomer, unassigned) [Example 369, 1-(4-(1H-pyrazol-4-yl)phenyl)-3-(1-(3-ethoxyphenyl)ethyl)-1H-imidazol-2(3H)-one] |
| 2.1 to 20 | CCOc1cccc(C(C)n2ccn(-c3ccc(-c4cn[nH]c4)cn3)c2=O)c1 (single isomer, unassigned) [Example 370, 1-(5-(1H-pyrazol-4-yl)pyridin-2-yl)-3-(1-(3-ethoxyphenyl)ethyl)-1H-imidazol-2(3H)-one] |
| < 2 | COc1cc(C(C)n2ccn(-c3ccc(-c4cn[nH]c4)c(OC)n3)c2=O)ccc1F (single isomer, unassigned) [Example 389, 1-(1-(4-fluoro-3-methoxyphenyl)ethyl)-3-(6-methoxy-5-(1H-pyrazol-4-yl)pyridin-2-yl)-1H-imidazol-2(3H)-one] |

Reference: US10123993B2, “Cyclic ureas as inhibitors of rock” (BRISTOL-MYERS SQUIBB COMPANY, priority 2015, dated 2018)
